Data from patent publication US11472791B2 (Incyte Corporation, priority 2019, dated 2022).

Each compound was assayed against CDK2/Cyclin E1 (Homo sapiens (Human), UniProt P24941) (assay: CDK2/Cyclin E1 HTRF enzyme activity assay). Conditions: 1 mM ATP.
Type: biochemical
Experimental: Assays are conducted in white 384-well polystyrene plates in a final reaction volume of 8 μL. […] HTRF signals are read after 1 hour at room temperature on a PHERAstar FS plate reader (BMG Labtech). Data is analyzed with IDBS XLFit and GraphPad Prism 5.0 software using a three or four parameter dose response curve to determine IC50 for each compound.

IC50, < 50 nM:
O=S(=O)(Cc1ccccc1)N1CCC(Nc2ncc(C(F)(F)F)c(-c3cnn(C4CCOCC4)c3)n2)CC1 [Example 5, N-(1-(Benzylsulfonyl)piperidin-4-yl)-4-(1-(tetrahydro-2H-pyran-4-yl)-1H-pyrazol-4-yl)-5-(trifluoromethyl)pyrimidin-2-amine]
CC(C)(O)Cn1cc(-c2nc(NC3CCN(S(=O)(=O)CCCCN4CCCC4)CC3)ncc2C#N)cn1 [Example 217, 4-(1-(2-Hydroxy-2-methylpropyl)-1H-pyrazol-4-yl)-2-((1-((4-(pyrrolidin-1-yl)butyl)sulfonyl)piperidin-4-yl)amino)pyrimidine-5-carbonitrile]
CC(=O)N1CCN(Cc2ccc(-n3cc(-c4nc(N[C@H]5CCN(S(=O)(=O)c6cn(C)cn6)C[C@H]5F)ncc4C(F)(F)F)cn3)c(C)c2)CC1 [Example 104, 1-(4-(4-(4-(2-(((3R,4S)-3-Fluoro-1-((1-methyl-1H-imidazol-4-yl)sulfonyl)piperidin-4-yl)amino)-5-(trifluoromethyl)pyrimidin-4-yl)-1H-pyrazol-1-yl)-3-methylbenzyl)piperazin-1-yl)ethan-1-one]
Cc1cc(CN2CCN(C)CC2)ccc1-n1cc(-c2nc(N[C@H]3CCN(S(C)(=O)=O)C[C@H]3F)ncc2C(F)(F)F)cn1 [Example 101, N-((3R,4S)-3-Fluoro-1-(methylsulfonyl)piperidin-4-yl)-4-(1-(2-methyl-4-((4-methylpiperazin-1-yl)methyl)phenyl)-1H-pyrazol-4-yl)-5-(trifluoromethyl)pyrimidin-2-amine]
COC1CCN(CCCS(=O)(=O)N2CCC(Nc3ncc(C(F)(F)F)c(-c4cnn(CC(C)(C)O)c4)n3)CC2)CC1 [Example 77, 1-(4-(2-((1-((3-(4-Methoxypiperidin-1-yl)propyl)sulfonyl)piperidin-4-yl)amino)-5-(trifluoromethyl)pyrimidin-4-yl)-1H-pyrazol-1-yl)-2-methylpropan-2-ol]
COC[C@@H]1CCN1CCCS(=O)(=O)N1CCC(Nc2ncc(C(F)(F)F)c(-c3cnn(CC(C)(C)O)c3)n2)CC1 [Example 221, (S)-1-(4-(2-((1-((3-(2-(Methoxymethyl)azetidin-1-yl)propyl)sulfonyl)piperidin-4-yl)amino)-5-(trifluoromethyl)pyrimidin-4-yl)-1H-pyrazol-1-yl)-2-methylpropan-2-ol]
CN1CC(S(=O)(=O)N2CCC(Nc3ncc(C(F)(F)F)c(-c4cnn(CC(C)(C)O)c4)n3)CC2)C1 [Example 85, 2-Methyl-1-(4-(2-((1-((1-methylazetidin-3-yl)sulfonyl)piperidin-4-yl)amino)-5-(trifluoromethyl)pyrimidin-4-yl)-1H-pyrazol-1-yl)propan-2-ol]
CC(C)(O)Cn1cc(-c2nc(NC3CCN(S(=O)(=O)CCCN4CCCCC4)CC3)ncc2C#N)cn1 [Example 215, 4-(1-(2-Hydroxy-2-methylpropyl)-1H-pyrazol-4-yl)-2-((1-((3-(piperidin-1-yl)propyl)sulfonyl)piperidin-4-yl)amino)pyrimidine-5-carbonitrile]
Cc1cc(CN2CCN(C(C)C)CC2)ccc1-n1cc(-c2nc(NC3CCN(S(=O)(=O)c4cn(C)cn4)CC3)ncc2Cl)cn1 [Example 247, 5-Chloro-4-(1-(4-((4-isopropylpiperazin-1-yl)methyl)-2-methylphenyl)-1H-pyrazol-4-yl)-N-(1-((1-methyl-1H-imidazole-4-yl)sulfonyl)piperidin-4-yl)pyrimidin-2-amine]
CS(=O)(=O)N1CCC(Nc2ncc(C(F)(F)F)c(-c3cnn(C4CCOCC4)c3)n2)CC1 [Example 3, N-(1-(Methylsulfonyl)piperidin-4-yl)-4-(1-(tetrahydro-2H-pyran-4-yl)-1H-pyrazol-4-yl)-5-(trifluoromethyl)pyrimidin-2-amine]
Cc1cc(CN2CCN(C)C(=O)C2)ccc1-n1cc(-c2nc(NC3CCN(S(=O)(=O)c4cn(C)cn4)CC3)ncc2Cl)cn1 [Example 248, 4-(4-(4-(5-Chloro-2-((1-((1-methyl-1H-imidazol-4-yl)sulfonyl)piperidin-4-yl)amino)pyrimidin-4-yl)-1H-pyrazol-1-yl)-3-methylbenzyl)-1-methylpiperazin-2-one]
CS(=O)(=O)N1CCC(Nc2ncc(C(F)(F)F)c(-c3cnn([C@H]4CC[C@H](C#N)CC4)c3)n2)CC1 [Example 34, trans-4-(4-(2-((1-(Methylsulfonyl)piperidin-4-yl)amino)-5-(trifluoromethyl)pyrimidin-4-yl)-1H-pyrazol-1-yl)cyclohexane-1-carbonitrile]
CN[C@H]1C[C@@H](n2cc(-c3nc(NC4CCN(S(=O)(=O)c5ccccn5)CC4)ncc3C(F)(F)F)cn2)C1 [Example 49, 4-(1-((1s,3s)-3-(Methylamino)cyclobutyl)-1H-pyrazol-4-yl)-N-(1-(pyridin-2-ylsulfonyl)piperidin-4-yl)-5-(trifluoromethyl)pyrimidin-2-amine]
CCNCc1ccc(-n2cc(-c3nc(NC4CCN(S(=O)(=O)c5cn(C)cn5)CC4)ncc3C#N)cn2)c(C)n1 [Example 127, 4-(1-(6-((Ethylamino)methyl)-2-methylpyridin-3-yl)-1H-pyrazol-4-yl)-2-((1-((1-methyl-1H-imidazol-4-yl)sulfonyl)piperidin-4-yl)amino)pyrimidine-5-carbonitrile]
Cn1cc(S(=O)(=O)N2CCC(Nc3ncc(C(F)(F)F)c(-c4cnn(C5CCOCC5)c4)n3)CC2)cn1 [Example 9, N-(1-((1-Methyl-1H-pyrazol-4-yl)sulfonyl)piperidin-4-yl)-4-(1-(tetrahydro-2H-pyran-4-yl)-1H-pyrazol-4-yl)-5-(trifluoromethyl)pyrimidin-2-amine]
CCN(CC)CCCS(=O)(=O)N1CCC(Nc2ncc(C#N)c(-c3cnn(CC(C)(C)O)c3)n2)CC1 [Example 213, 2-((1-((3-(Diethylamino)propyl)sulfonyl)piperidin-4-yl)amino)-4-(1-(2-hydroxy-2-methylpropyl)-1H-pyrazol-4-yl)pyrimidine-5-carbonitrile]
CS(=O)(=O)N1CCC(Nc2ncc(C(F)(F)F)c(-c3cnn(-c4ccccc4F)c3)n2)CC1 [Example 13, 4-(1-(2-Fluorophenyl)-1H-pyrazol-4-yl)-N-(1-(methylsulfonyl)piperidin-4-yl)-5-(trifluoromethyl)pyrimidin-2-amine]
COC(=O)N[C@H]1CC[C@@H](NCc2ccc(-n3cc(-c4nc(NC5CCN(S(C)(=O)=O)CC5)ncc4C#N)cn3)c(Cl)c2)C1 [Example 280, Methyl ((1S,3R)-3-((3-chloro-4-(4-(5-cyano-2-((1-(methylsulfonyl)piperidin-4-yl)amino)pyrimidin-4-yl)-1H-pyrazol-1-yl)benzyl)amino)cyclopentyl)carbamate]
CCS(=O)(=O)N1CCC(Nc2ncc(C#N)c(-c3cnn(-c4ccc(CN[C@H]5C[C@](C)(O)C5)cc4Cl)c3)n2)CC1 [Example 193, 4-(1-(2-Chloro-4-((((1r,3r)-3-hydroxy-3-methylcyclobutyl)amino)methyl)phenyl)-1H-pyrazol-4-yl)-2-((1-(ethylsulfonyl)piperidin-4-yl)amino)pyrimidine-5-carbonitrile]
